Experimental data as given in PMC2360244 (British Journal of Cancer, 2007).
Like-named read-outs stand apart in the source and are kept apart here.

Key:
[1] = test system: A2780 ovarian carcinoma cells; experiment: A2780 tumour cell proliferation, MTT colorimetric assay; format: cell-based, human; conditions: 4 days, mean±s.d.
Protocol: Control cells were treated with the combined respective vehicle.

[2] = test system: H3 acetylation and p21waf1,cip1 in A2780 ovarian carcinoma cells; experiment: Western blot of acetylated H3 and p21waf1,cip1 in A2780 cells (class I HDAC readout); format: cell-based, human; conditions: 24 h, western blot
Protocol: (§1) Human A2780 ovarian carcinoma cells were incubated with the indicated concentrations of HDAC inhibitors. Total cell lysates were prepared and analysed by SDS–PAGE. […] To control for equal loading, blots were stripped and re-probed with mouse monoclonal antiactin IgM (Ab-1, Oncogene Research products, Merck, Darmstadt, Germany). […] Protein–antibody complexes were then visualised by chemiluminescence (Pierce Chemical Co., Perbioscience, Erembodegem, Belgium) or fluorescence (Odyssey) according to manufacturer's instructions.
(§2) Total cell lysates were prepared and analysed by SDS–PAGE. Levels of acetylated H3 and tubulin, and of total levels of H3 and tubulin and of p21^waf1, cip1 and Hsp70 and c-raf protein, were detected using rabbit polyclonal and mouse monoclonal antibodies, followed by ECL detection as indicated in the Methods section. To control for equal loading, blots were stripped and re-probed with antibodies against actin and the nuclear protein Lamin B1. A representative experiment out of three is shown.

[3] = test system: tubulin acetylation and Hsp70 in A2780 ovarian carcinoma cells; experiment: Western blot of acetylated tubulin and Hsp70 in A2780 cells (HDAC6 readout); format: cell-based, human; conditions: for concentration at which tubulin acetylation (and Hsp70 induction) is evident: western blot
Protocol: as §1, §2

HDAC6 = target: T1, HDAC6 (Rattus norvegicus, UniProt A0A8I6GM68); experiment: biochemical; format: biochemical
T1 construct: partially purified extract from rat liver; from tissue; host or cells: rat liver, partially purified extract
T1 sequence (A0A8I6GM68 whole entry): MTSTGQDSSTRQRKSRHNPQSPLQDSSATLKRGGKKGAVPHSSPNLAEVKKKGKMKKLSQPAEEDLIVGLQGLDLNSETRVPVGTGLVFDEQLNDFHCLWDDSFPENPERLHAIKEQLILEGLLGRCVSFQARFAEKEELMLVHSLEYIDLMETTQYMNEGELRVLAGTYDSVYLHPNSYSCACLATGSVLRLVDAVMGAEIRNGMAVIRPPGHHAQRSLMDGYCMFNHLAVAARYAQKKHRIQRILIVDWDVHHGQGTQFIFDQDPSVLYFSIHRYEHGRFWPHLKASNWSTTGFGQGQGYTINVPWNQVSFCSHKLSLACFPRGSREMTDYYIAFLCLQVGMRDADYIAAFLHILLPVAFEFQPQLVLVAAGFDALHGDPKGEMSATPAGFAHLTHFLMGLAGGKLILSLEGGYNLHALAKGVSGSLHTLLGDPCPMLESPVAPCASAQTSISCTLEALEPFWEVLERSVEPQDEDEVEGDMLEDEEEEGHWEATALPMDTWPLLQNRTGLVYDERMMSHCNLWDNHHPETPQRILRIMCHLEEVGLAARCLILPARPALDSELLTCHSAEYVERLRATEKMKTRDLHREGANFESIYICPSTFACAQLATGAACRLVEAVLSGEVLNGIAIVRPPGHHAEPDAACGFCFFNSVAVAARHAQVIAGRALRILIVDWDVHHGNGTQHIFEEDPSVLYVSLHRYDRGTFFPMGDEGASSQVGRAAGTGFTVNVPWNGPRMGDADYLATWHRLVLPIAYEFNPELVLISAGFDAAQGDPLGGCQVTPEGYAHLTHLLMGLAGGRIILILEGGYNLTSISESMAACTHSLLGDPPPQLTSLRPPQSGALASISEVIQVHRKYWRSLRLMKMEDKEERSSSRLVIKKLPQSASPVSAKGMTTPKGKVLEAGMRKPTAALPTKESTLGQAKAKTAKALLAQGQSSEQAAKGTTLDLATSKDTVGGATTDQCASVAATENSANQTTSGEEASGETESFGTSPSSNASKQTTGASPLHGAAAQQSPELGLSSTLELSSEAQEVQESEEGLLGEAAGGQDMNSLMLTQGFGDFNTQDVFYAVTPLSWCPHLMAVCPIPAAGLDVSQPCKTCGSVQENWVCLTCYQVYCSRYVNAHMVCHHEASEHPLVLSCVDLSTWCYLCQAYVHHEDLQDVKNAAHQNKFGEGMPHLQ
Protocol: (§3) After centrifugation, the cleared extract was used for immunoprecipitation of HDAC1. […] Incubation was performed for 45 min at 37°C (immunoprecipitates) or 30 min at room temperature (HeLa nuclear extract). Before addition of substrate, HDAC inhibitors were added at increasing concentrations and preincubated for 10 min at room temperature. After incubation, the reaction was quenched with 35 μl stop buffer (1 M HCl and 0.4 M acetic acid). Released [^3H]acetic acid was extracted with 800 μl ethyl acetate and quantified by scintillation counting. Equal amounts of HDAC1 were immunoprecipitated as indicated by western blot analysis. Histone deacetylase 1 activity results are presented as mean±s.d. of three independent experiments on a single lysate. […] Finally, we measured the activities of different HDAC isotypes present in partially purified extract from rat liver using the fluorescent HDAC substrates MAL (unselective), B61 (selective for HDAC1, and to some extent also converted by HDAC3) and B12 (selective for HDAC6).

HDAC1 = HDAC1 (Rattus norvegicus, UniProt Q4QQW4); format: biochemical
Sequence of HDAC1 (Q4QQW4 whole entry): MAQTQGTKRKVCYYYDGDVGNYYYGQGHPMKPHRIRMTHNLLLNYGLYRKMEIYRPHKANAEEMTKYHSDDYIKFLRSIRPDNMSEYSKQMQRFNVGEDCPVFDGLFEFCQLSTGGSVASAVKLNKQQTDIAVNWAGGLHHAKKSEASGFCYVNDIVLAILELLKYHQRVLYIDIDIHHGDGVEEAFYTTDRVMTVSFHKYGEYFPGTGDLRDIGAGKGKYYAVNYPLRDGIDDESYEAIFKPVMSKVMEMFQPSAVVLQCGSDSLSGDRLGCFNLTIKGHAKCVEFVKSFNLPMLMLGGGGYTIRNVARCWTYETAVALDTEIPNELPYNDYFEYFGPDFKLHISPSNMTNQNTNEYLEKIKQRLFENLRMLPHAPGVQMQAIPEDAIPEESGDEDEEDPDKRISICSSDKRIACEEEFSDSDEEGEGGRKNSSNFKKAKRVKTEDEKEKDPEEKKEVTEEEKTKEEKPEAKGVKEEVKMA
Protocol: After centrifugation, the cleared extract was used for immunoprecipitation of HDAC1. […] (Amersham Pharmacia Biotech, Piscataway, NJ, USA) in a total volume of 50 μl enzyme assay buffer (25 mM HEPES (pH 7.4), 1 M sucrose, 0.1 mg ml^−1 BSA and 0.01% (v v^−1) Triton X-100). Incubation was performed for 45 min at 37°C (immunoprecipitates) or 30 min at room temperature (HeLa nuclear extract). Before addition of substrate, HDAC inhibitors were added at increasing concentrations and preincubated for 10 min at room temperature. After incubation, the reaction was quenched with 35 μl stop buffer (1 M HCl and 0.4 M acetic acid). Released [^3H]acetic acid was extracted with 800 μl ethyl acetate and quantified by scintillation counting. Equal amounts of HDAC1 were immunoprecipitated as indicated by western blot analysis. Histone deacetylase 1 activity results are presented as mean±s.d. of three independent experiments on a single lysate. […] Finally, we measured the activities of different HDAC isotypes present in partially purified extract from rat liver using the fluorescent HDAC substrates MAL (unselective), B61 (selective for HDAC1, and to some extent also converted by HDAC3) and B12 (selective for HDAC6).

[4] = test system: HDAC isotypes in partially purified extract from rat liver (MAL, unselective); conditions: read-out: Liver extract MAL unselective IC50, substrate MAL
Protocol: as §3

Row | Structure (SMILES) | IC50 [1] [nM] | concentration at which H3 acetylation is induced [2] [nM] | IC50 [4] [nM] | concentration at which tubulin acetylation (and Hsp70 induction) is evident ([3]; 24 h) [nM] | other results
1 | Nc1ccccc1NC(=O)c1ccc(CNC(=O)OCc2cccnc2)cc1 [MS-275] | 376 ± 169 | 3000 | – | – | effect on tubulin acetylation or Hsp70 levels ([3]; 3 μM, 24 h): did not affect tubulin acetylation or Hsp70 levels; Liver extract B12 HDAC6 IC50 (HDAC6; rat liver extract, substrate B12): Inactive; Liver extract B61 HDAC1 IC50 (HDAC1; rat liver extract, substrate B61): Inactive
2 | Cc1[nH]c2ccccc2c1CCNCc1ccc(/C=C/C(=O)NO)cc1 [Panobinostat] | – | 100 | 75 ± 4 | 100 | IC50 ([1]; Homo sapiens, A2780, 96 h): 4.6 ± 1.8 nM; IC50 (HDAC6): 89 ± 12 nM; substrate preference B61 (HDAC1/HDAC3) vs B12 (HDAC6) (HDAC6; rat liver HDAC preparation): equipotent activity towards both substrates
3 | CC(/C=C/C(=O)NO)=C\[C@@H](C)C(=O)c1ccc(N(C)C)cc1 [TSA, Trichostatin A] | 23 ± 8 | 300 | 12 ± 1.2 | 300 | IC50 (HDAC6; read-out: Liver extract B12 HDAC6 IC50): 20.7 ± 2.6 nM
4 | O=C(CCCCCCC(=O)Nc1ccccc1)NO [Vorinostat, suberoylanilide hydroxamic acid] | – | – | – | – | cellular potency for HDAC6 vs HDAC1 (higher for HDAC6) ([3]; tubulin acetylation vs H3 acetylation): 10 fold; IC50 (HDAC1; read-out: Liver extract B61 HDAC1 IC50): 1030 ± 201 nM
